Where two headings read alike, the source gives them in different places.
Assays:
Assay type in all cases: cell-based, HIV-1
[1] = tested on: recombinant virus from patient viral RNA (Example 5, 3TC resistant HIV strains); assay: Recombinant virus assay (MT4/MTT), patient of Example 5 (AZT, then AZT+3TC therapy); conditions: for ratio (1)/(2): Table 1, patient mean IC50 / recIIIB IC50, Example 5
Method: (§1) RNA was isolated from 100 μl of plasma according to the method described by Boom, R. et al. (1990, supra), and was reverse transcribed with the GeneAmp reverse transcriptase kit (Perkin Elmer) as described by the manufacturer and using an HIV-1 specific downstream primer (OUT3: 5′-CATTGCTCTCCAATTACTGTGATATTTCTCATC-3′; SEQ ID NO: 1). PCR on reverse transcribed RNA was performed with inner and outer primers as described by Kellam, P. and Larder, B. A. (1994, supra). After chloroform extraction and centrifugation on Centricon 100 columns or centrifugation on anion-exchange spin columns (Quiagen), the isolated PCR product was ready for use in the transfection reactions.
(§2) MT4 cells were subcultured at a density of 250,000 cells/ml before transfection (exponential growth phase). Cells were pelleted and resuspended in phosphate buffered saline (PBS) at a concentration of […]. A 0.8 ml portion (2.5 10E6 cells/ml) was used for each transfection. Transfection was performed with the Bio-Rad Gene pulser making use of 0.4 cm electrode cuvettes. Cells were electroporated in the presence of […] of linearised pHIVΔRT plasmid and approximately 5 μg of RT PCR product at 250SF and 300 V, followed by a 30-min incubation at room temperature. Subsequently, 10 ml of fresh culture medium was added to the cell suspension and incubation was performed at 37° C. in a humidified atmosphere of 5% CO2.
(§3) During 7 to 10 days following the transfection, cells were monitored for the appearance of cytopathogenic effect (CPE). In the absence thereof, cells were subcultured in different flasks. Subsequently, culture supernatants of transfected cells were used to create a stock of recombinant virus and stored in 1.5 ml aliquots at −70° C.
(§4) After titration of the new viruses, the stocks were used for antiviral experiments in the presence of serial dilutions of different HIV inhibitors. Titres of the harvested supematants were determined by limited serial dilution titration of virus in MT4 cells.
(§5) Viruses with a useful titre were used in antiviral experiments. For this purpose, 96-well microtitre plates were filled with 100μl of complete culture medium. Subsequently, stock solutions of compounds were added in 25 μl volumes to series of duplicate wells. HIV- and mock-infected cell samples were included for each drug (or drug combination). Exponentially growing MT4 cells were then transferred to the microtitre plates at a density of 150,000 cells/ml. The cell cultures were then incubated at 37° C. in a humidified atmosphere of 5% CO2. Five days after infection, the viability of the mock- and HIV-infected cells was examined spectrophotometrically by the M1T method (Pauwels, R. et al. J. Virol. Meth. (1988), 20: 309-321) as described in Section 6 below.
(§6) To each well of the microtiter plates, 20 μl of a solution of MTT (7.5 mg/ml in PBS) was added. The plates were further incubated at 37° C. for 1 h. Then, 150 μl of medium was removed without disturbing the MT4 cell clusters containing the formazan crystals. Solubilization of the formazan crystals was achieved by adding 100 μl 5% Triton X-100 in acidified isopropanol (5 ml concentrated HCl per liter solvent). Complete dissolution of the formazan crystals was obtained after the plates had been placed on a plate shaker for 10 min. Finally the absorbances were read at two wavelengths (540 and 690 nm). From these optical density (OD) data, 50% inhibitory (IC50) and 50% cytotoxic (CC50) concentrations were derived.
An HIV infected patient who received AZT from December 1989 until an undocumented later date, and switched to a combined chemotherapy of AZT+3TC (1:1) from February 1994 until October 1995 donated plasma whose susceptibility to a number of RT inhibitors was determined according to the above described protocol of Example 1. Recombinant wild type HIV strain recIIIB was used in said protocol as a reference HIV virus.

[2] = tested on: Recombinant wild type HIV strain recIIIB; assay: Antiviral MT4/MTT assay with reference virus recIIIB
Method: as §4, §5, §6

[3] = tested on: recombinant virus from patient viral RNA (Example 7, drug-naive patient); assay: Recombinant virus assay (MT4/MTT), drug-naive patient of Example 7; conditions: for IC50: Human immunodeficiency virus 1, Table 3, Example 7 patient virus; for ratio (1)/(2): Table 3, patient mean IC50 / recIIIB IC50, Example 7
Method: as §1, §2, §3, §4, §5, §6
A drug-naive HIV-infected patient donated plasma whose susceptibility to a number of RT inhibitors was determined according to the protocol set out in Example 1. Recombinant wild type HIV strain recIIIB was used as a reference HIV virus.

[4] = tested on: recombinant virus from patient viral RNA (Example 8); assay: Recombinant virus assay (MT4/MTT), patient of Example 8 (therapy history AZT, 3TC and loviride); conditions: for IC50: Human immunodeficiency virus 1, Table 4, Example 8 patient virus; for ratio (1)/(2): Table 4, patient mean IC50 / recIIIB IC50, Example 8
Method: as §1, §2, §3, §4, §5, §6
(§7) An HIV-infected patient with a therapy history including AZT, 3TC and loviride donated plasma whose susceptibility to a number of RT inhibitors was determined according to the protocol set out in Example 1. Recombinant wild type HIV strain recIIIB was used as a reference HIV virus.

[5] = tested on: recombinant virus from patient viral RNA (Example 9); assay: Recombinant virus assay (MT4/MTT), patient of Example 9 (multiple nucleoside analogue RT-inhibitors); conditions: for IC50: Human immunodeficiency virus 1, Table 5, Example 9 patient virus; for ratio (1)/(2): Table 5, patient mean IC50 / recIIIB IC50, Example 9
Method: as §1, §2, §3, §4, §5, §6
as §7, with “multiple nucleoside analogue RT-inhibitors” for “AZT, 3TC and loviride”

[6] = tested on: recombinant virus from patient viral RNA (Example 6, drug-naive patient); assay: Recombinant virus assay (MT4/MTT), drug-naive patient of Example 6; conditions: for IC50: Human immunodeficiency virus 1, Table 2, Example 6 patient virus; for ratio (1)/(2): Table 2, patient mean IC50 / recIIIB IC50, Example 6
Method: as §1, §2, §3, §4, §5, §6
A drug-naive HIV infected patient donated plasma whose susceptibility to a number of RT inhibitors was determined according to the above described protocol of Example 1. Recombinant wild type HIV strain recIIIB was used in said protocol as a reference HIV virus.

[7] = Human immunodeficiency virus 1, Table 1, Example 5 patient virus, MT4 cells, read-out: Anti-HIV-1 activity IC50 (μM) Exp. 1
[8] = Human immunodeficiency virus 1, Table 1, Example 5 patient virus, MT4 cells, read-out: Anti-HIV-1 activity IC50 (μM) Exp. 2
[9] = Human immunodeficiency virus 1, Table 1, Example 5 patient virus, mean of Exp. 1 and 2, read-out: Anti-HIV-1 activity IC50 (μM) Mean (1)
[10] = Human immunodeficiency virus 1, Table 1, reference run of Example 5, read-out: Anti-HIV-1 activity IC50 (μM) recIIIB ref (2)
[11] = Human immunodeficiency virus 1, Table 2, reference run of Example 6, read-out: Anti-HIV-1 activity IC50 (μM) recIIIB ref (2)
[12] = Human immunodeficiency virus 1, Table 3, reference run of Example 7, read-out: Anti-HIV-1 activity IC50 (μM) recIIIB ref (2)
[13] = Human immunodeficiency virus 1, Table 4, reference run of Example 8, read-out: Anti-HIV-1 activity IC50 (μM) recIIIB ref (2)
[14] = Human immunodeficiency virus 1, Table 5, reference run of Example 9, read-out: Anti-HIV-1 activity IC50 (μM) recIIIB ref (2)
[15] = Human immunodeficiency virus 1, Table 6, reference run of Example 10, read-out: Anti-HIV-1 activity IC50 (μM) recIIIB ref (2)
[16] = MT4 cells, read-out: Anti-HIV-1 activity IC50 (μM) Exp. 1
[17] = mean, read-out: Anti-HIV-1 activity IC50 (μM) Mean (1)
[18] = MT4 cells, read-out: Anti-HIV-1 activity IC50 (μM) Exp. 2
[19] = mean of Exp. 1 and 2, read-out: Anti-HIV-1 activity IC50 (μM) Mean (1)

Compound	IC50 [1, 7] [µM]	ratio (1)/(2) [1]	IC50 [2, 11] [µM]	IC50 [2, 12] [µM]	IC50 [2, 13] [µM]	IC50 [2, 14] [µM]	IC50 [3, 16] [µM]	IC50 [3, 17] [µM]	ratio (1)/(2) [3]	IC50 [4, 16] [µM]	IC50 [4, 18] [µM]	IC50 [4, 17] [µM]	ratio (1)/(2) [4]	IC50 [5, 16] [µM]	IC50 [5, 17] [µM]	ratio (1)/(2) [5]	IC50 [6, 16] [µM]	IC50 [6, 18] [µM]	IC50 [6, 19] [µM]	ratio (1)/(2) [6]	further results
Nc1ccn([C@@H]2CS[C@H](CO)O2)c(=O)n1 [3TC, lamivudine]	31.6	118	3.08	1.38	6.3	16.7	2.17	2.17	2	> 100	> 100	> 100	>16	> 100	> 100	>6	1.81	2.02	1.91	1	IC50 [1, 8]: 100 µM; IC50 [1, 9]: 65.8 µM; IC50 [2, 10]: 0.56 µM; IC50 [2, 15]: 4.61 µM; IC50 ([2]; Human immunodeficiency virus 1, read-out: Anti-HIV-1 activity IC50 (μM) recIIIB ref (2), Table 7, reference run of Example 11): 5.18 µM; IC50 ([2]; Human immunodeficiency virus 1, read-out: Anti-HIV-1 activity IC50 (μM) recIIIB ref (2), Table 8, reference run of Example 12): 4.61 µM; IC50 [5, 18]: > 100 µM
Cc1cn([C@H]2C[C@H](N=[N+]=[N-])[C@@H](CO)O2)c(=O)[nH]c1=O [AZT, zidovudine]	0.001	0.4	0.06	0.023	0.084	0.291	0.052	0.051	2	18.3	22.3	20.3	241	> 100	> 100	>344	0.04	0.05	0.05	1	IC50 [1, 8]: 0.002 µM; IC50 [1, 9]: 0.002 µM; IC50 [2, 10]: 0.004 µM; IC50 [2, 15]: 0.041 µM; IC50 ([2]; Human immunodeficiency virus 1, Table 7, reference run of Example 11, read-out: Anti-HIV-1 activity IC50 (μM) recIIIB ref (2)): 0.047 µM; IC50 ([2]; Human immunodeficiency virus 1, Table 8, reference run of Example 12, read-out: Anti-HIV-1 activity IC50 (μM) recIIIB ref (2)): 0.041 µM; IC50 [3, 18]: 0.05 µM
Cc1cn([C@H]2C=C[C@@H](CO)O2)c(=O)[nH]c1=O [d4T, stavudine]		0.5	1.74	1.37	5.46	12	1.14	1.4	1	7.5	7.1	7.3	1	> 100	> 100	>8	1.31	0.97	1.14	1	IC50 ([1]; Human immunodeficiency virus 1, MT4, read-out: Anti-HIV-1 activity IC50 (μM) Exp. 1): 0.07 µM; IC50 ([1]; Human immunodeficiency virus 1, MT4, read-out: Anti-HIV-1 activity IC50 (μM) Exp. 2): 0.49 µM; IC50 ([1]; Human immunodeficiency virus 1, read-out: Anti-HIV-1 activity IC50 (μM) Mean (1)): 0.06 µM; IC50 ([2]; Human immunodeficiency virus 1, read-out: Anti-HIV-1 activity IC50 (μM) recIIIB ref (2), Table 1, reference run of Example 5): 0.12 µM; IC50 [3, 18]: 1.66 µM; IC50 [5, 18]: > 100 µM
Nc1ccn([C@H]2CC[C@@H](CO)O2)c(=O)n1 [ddC, zalcitabine]	0.2	0.5	2.21	1.62	1.93	3.44	1.04	1.22	0.8	9.29	8.51	8.9	5	60.1	66.6	19	1.45	1.47	1.46	1	IC50 [1, 8]: 0.2 µM; IC50 [1, 9]: 0.2 µM; IC50 [2, 10]: 0.38 µM; IC50 [3, 18]: 1.39 µM; IC50 [5, 18]: 73 µM
